Read-outs that look alike come from different tables or passages of the source.
Assays:
Pseudomonas alcaligenes = test: Wood preservative efficacy against bacteria and yeasts, tryptose agar plates; format: cell-based; design: key: 0 = growth equal to control, 1 = inhibition, 2 = no growth; settings: 100 ppm in tryptose agar
Description: (§1) Compositions were prepared by dissolving the compounds shown in Table 1 in 50% ethanol and further diluting with sterile distilled water. […] After cooling, the medium was inoculated with the bacteria listed below. After sufficient growth of the untreated cultures, the compounds were evaluated using the following rating system: 0=growth equal to control 1=inhibition of growth by the compound 2=no growth under the influence of the compound. In this Table, the higher numbers are the most preferred species. Pseudomonas alcaligenes (gram neg)

Bacillus cereus mycoides = format: cell-based; design: scale not given here
Pseudomonas aeruginosa = test: Wood preservative efficacy against bacteria and yeasts, tryptose agar plates; format: cell-based; design: key: 0 = growth equal to control, 1 = growth inhibited, 2 = no growth; settings: 100 ppm in tryptose agar
Description: as §1, with “aeruginosa” for “alcaligenes”

Debaryomyces hansenii = test: as above; format: cell-based; design: key: 0 = growth equal to control, 1 = inhibition, 2 = no growth
Description: as §1, with “Debaryomyces hansenii (yeast)” for “Pseudomonas alcaligenes (gram neg)”

Flavobacterium sp. = test: as above; format: cell-based; design: key: 0 = growth equal to control, 1 = growth inhibited, 2 = no growth; settings: 100 ppm in tryptose agar
Description: as §1, with “Flavobacterium sp.” for “Pseudomonas alcaligenes”

Streptomyces albus = test: as above; format: cell-based; design: key: 0 = growth equal to control, 1 = inhibition, 2 = no growth; settings: 100 ppm in tryptose agar
Description: as §1, with “Streptomyces albus” for “Pseudomonas alcaligenes”, “pos)” for “neg)”

Enterobacter aerogenes = test: as above; format: cell-based; design: key: 0 = growth equal to control, 1 = inhibition, 2 = no growth; settings: 100 ppm in tryptose agar
Description: as §1, with “Enterobacter aerogenes” for “Pseudomonas alcaligenes”

Escherichia coli = test: as above; format: cell-based; design: key: 0 = growth equal to control, 1 = growth inhibited, 2 = no growth; settings: 100 ppm in tryptose agar
Description: as §1, with “Escherichia coli” for “Pseudomonas alcaligenes”, “[…])” for “neg)”

[1] = test system: blue-stain fungi and molds; test: Activity against blue-stain fungi and molds on a stick test on vermiculite (paint film); design: key to Surface score of wooden sticks treated with paint formulation, C. cladosporioides / Surface score of wooden sticks treated with paint formulation, P. purpurogenum / Surface score of wooden sticks treated with paint formulation, P. violacea / Surface score of wooden sticks treated with paint formulation, R rubra (y) / Surface score of wooden sticks treated with paint formulation, S. chartarum / Surface score of wooden sticks treated with paint formulation, A. versicolor / Surface score of wooden sticks treated with paint formulation, A. pullulans: 0: No growth; Trace of growth of up to 1% coverage of the test inoculated area; 2: Growth covering between 1 and 10% of the inoculated test area; Growth covering between 10 and 30% of the inoculated test area; 4: Growth covering between 30 and 70% of the inoculated test area; 5: Growth covering more than 70t of the inoculated test area; settings: 12 weeks on vermiculite; for Surface score of wooden sticks treated with paint formulation, R rubra (y): R rubra (yeast)
Description: Beech sticks (73×18×2 mm) Fagus sylvatica were painted, allowed to dry, and sterilized by γ-radiation (1.2 mRad). […] The coated sticks prepared above were then dipped in a spore suspension of pure culture of each fungus. Seven sticks each were placed in autoclaved Petri dishes (200 mm in diameter, 30 mm in height) containing 300 ml of vermiculite and 120 ml of water, and incubated for 12 weeks. The surfaces of the sticks were then examined for the growth of fungus and were evaluated according to the following scoring system: 0: No growth 1: […] 2: […] 3: […] 4. […] 5. Growth covering more than 70t of the inoculated test area.

[2] = test system: mixed spore suspension of blue-stain fungus and molds; test: Activity against blue-stain fungi and molds in a mold cabinet test (BS3900: Part G6); design: key: 0: No growth; Trace of growth of up to 1% coverage of the test inoculated area; 2: Growth covering between 1 and 10% of the inoculated test area; Growth covering between 10 and 30% of the inoculated test area; 4: Growth covering between 30 and 70% of the inoculated test area; 5: Growth covering more than 70t of the inoculated test area
Description: Using the methods described in BS3900: Part G6: 1989, British Standard Methods of test for paints, “Assessment of resistance to fungal growth”, representative compounds of this invention were tested for activity against blue-stain fungus and molds in a mold cabinet test. In brief, sticks of Scots pine (Pinus sylvestris) measuring 75×100×10 mm, were painted, allowed to dry, and sterilized by […] (1.2 mRad). […] The sticks were then with each solution. The inoculation consisted of dipping the sticks in a mixed spore suspension, then placing them in a mold chamber and incubating them for 12 weeks. The surfaces were evaluated according the following score system: 0: No growth 1: […] 2: […] 3: […] 4. […] 5. Growth covering more than 70% of the inoculated test area.

[3] = test system: mixed spore suspension: Aureobasidium pullulans, Aspergillus amstelodami, Ceratocystis pilifera, Cladosporium sp., Penicillium sp., Sclerophomas entoxylina …; test: Control of molds and sapstain fungi in mini-board test; design: key to Surface score of treated mini-boards, 3 week incubation, 1500 ppm / Surface score of treated mini-boards, 3 week incubation, 2500 ppm: 0: Free of fungal growth; 1: Traces of fungal growth; 2: Little fungal growth; 3: Moderate fungal growth; 4: Vigorous to maximum growth (all surfaces covered with fungal growth)
Source text: Representative compounds of this invention to be tested, were suspended in an aqueous solution containing 7.5% GENAPOL X 080™ (Hoechst-Celanese Corporation), and 20% propylene glycol monomethyl ether, to prepare the test solutions. […]
Deep frozen boards (300×50×10 mm) of freshly felled sapwood of Pinus sylvestrus (mini-boards) were thawed at room temperature. One half of each mini-board was immersed in a test solution for 20 seconds. The mini-boards were then sprayed with mixed spore suspension containing the following fungi:
Sclerophomas entoxylina, and
and stored in incubation boxes at 25° C. and at 100% relative humidity, for three weeks. For each compound tested, each concentration of test solution was applied to five different mini-boards.
The efficacy of the test compounds was determined by comparing the fungal growth on both the treated and untreated parts of the mini-boards.
The degree of infection was scored according to the following scale:
1=Traces of fungal growth
4=Vigorous to maximum growth (all surfaces covered with fungal growth)

Q: Which “Score of bactericidal activity, P. alcalgenes” value (Pseudomonas alcaligenes) does the source give for `C[S+]1CCON=C1c1ccc(Cl)cc1Cl` (stereo not drawn) [Compound 2] here?
A: 0

Q: What about the “Score of bactericidal activity, B. cereus mycoides” value (from here on “Score … B. cereus mycoides”) (Bacillus cereus mycoides; 10 ppm in tryptose agar) of the same molecule?
A: 0

Q: And the “Score … B. cereus mycoides” value (Bacillus cereus mycoides; 100 ppm in tryptose agar)?
A: 2

Q: And the “Score of bactericidal activity, P. aeruginosa” value (Pseudomonas aeruginosa)?
A: 0

Q: What about the “Score of bactericidal activity, D. hansenii” value (from here on “Score … D. hansenii”) (Debaryomyces hansenii; 10 ppm in tryptose agar) of the same molecule?
A: 2

Q: What about the “Score … D. hansenii” value (Debaryomyces hansenii; 100 ppm in tryptose agar) of the same molecule?
A: 2

Q: And the “Score of bactericidal activity, Flavobacter” value (Flavobacterium sp.)?
A: 2

Q: What about the “Score of bactericidal activity, S. albus” value (Streptomyces albus) of the same molecule?
A: 0

Q: And the “Score of bactericidal activity, E. aerogenes” value (Enterobacter aerogenes)?
A: 0

Q: What about the “Score of bactericidal activity, E. Coli” value (Escherichia coli) of the same molecule?
A: 0

Q: What does the source list for `C[S+]1CCON=C1c1cccc(C(F)(F)F)c1` (stereo not drawn) [Compound 13]?
A: Score of bactericidal activity, P. alcalgenes (Pseudomonas alcaligenes): 0; Score of bactericidal activity, B. cereus mycoides (Bacillus cereus mycoides; 10 ppm in tryptose agar): 2; Score of bactericidal activity, B. cereus mycoides (Bacillus cereus mycoides; 100 ppm in tryptose agar): 2; Score of bactericidal activity, P. aeruginosa (Pseudomonas aeruginosa): 0; Score of bactericidal activity, D. hansenii (Debaryomyces hansenii; 10 ppm in tryptose agar): 2; Score of bactericidal activity, D. hansenii (Debaryomyces hansenii; 100 ppm in tryptose agar): 2; Score of bactericidal activity, Flavobacter (Flavobacterium sp.): 2; Score of bactericidal activity, S. albus (Streptomyces albus): 2; Score of bactericidal activity, E. aerogenes (Enterobacter aerogenes): 0; Score of bactericidal activity, E. Coli (Escherichia coli): 2

Q: `C[S+]1CCON=C1c1c(Cl)cccc1Cl` (stereo not drawn) [Compound 15] was tested. Which “Score of bactericidal activity, P. alcalgenes” value (Pseudomonas alcaligenes) did it give?
A: 0

Q: And the “Score … B. cereus mycoides” value (Bacillus cereus mycoides; 10 ppm in tryptose agar)?
A: 0

Q: What about the “Score … B. cereus mycoides” value (Bacillus cereus mycoides; 100 ppm in tryptose agar) of the same molecule?
A: 1

Q: What about the “Score of bactericidal activity, P. aeruginosa” value (Pseudomonas aeruginosa) of the same molecule?
A: 0

Q: And the “Score … D. hansenii” value (Debaryomyces hansenii; 10 ppm in tryptose agar)?
A: 0

Q: And the “Score … D. hansenii” value (Debaryomyces hansenii; 100 ppm in tryptose agar)?
A: 1

Q: What about the “Score of bactericidal activity, Flavobacter” value (Flavobacterium sp.) of the same molecule?
A: 0

Q: And the “Score of bactericidal activity, S. albus” value (Streptomyces albus)?
A: 0

Q: What about the “Score of bactericidal activity, E. aerogenes” value (Enterobacter aerogenes) of the same molecule?
A: 0

Q: What about the “Score of bactericidal activity, E. Coli” value (Escherichia coli) of the same molecule?
A: 0

Q: Which “Surface score of wooden sticks treated with paint formulation, A. pullulans” value ([1]; 0.15% a.i. in paint) does the source give for `Cc1ccsc1C1=NOCCS1(=O)=O` [Compound 37] here?
A: 3 (Growth covering between 10 and 30% of the inoculated test area)

Q: What about the “Surface score of wooden sticks treated with paint formulation, A. pullulans” value ([1]; 0.3% a.i. in paint) of the same molecule?
A: 2 (Growth covering between 1 and 10% of the inoculated test area)

Q: And the “Surface score of wooden sticks treated with paint formulation, A. versicolor” value ([1]; 0.15% a.i. in paint)?
A: 2 (Growth covering between 1 and 10% of the inoculated test area)

Q: And the “Surface score of wooden sticks treated with paint formulation, A. versicolor” value ([1]; 0.3% a.i. in paint)?
A: 1 (Trace of growth of up to 1% coverage of the test inoculated area)

Q: What about the “Surface score of wooden sticks treated with paint formulation, C. cladosporioides” value ([1]; 0.15% a.i. in paint) of the same molecule?
A: 3 (Growth covering between 10 and 30% of the inoculated test area)

Q: And the “Surface score of wooden sticks treated with paint formulation, C. cladosporioides” value ([1]; 0.3% a.i. in paint)?
A: 0

Q: And the “Surface score of wooden sticks treated with paint formulation, P. purpurogenum” value ([1]; 0.15% a.i. in paint)?
A: 3 (Growth covering between 10 and 30% of the inoculated test area)

Q: And the “Surface score of wooden sticks treated with paint formulation, P. purpurogenum” value ([1]; 0.3% a.i. in paint)?
A: 1 (Trace of growth of up to 1% coverage of the test inoculated area)

Q: What about the “Surface score of wooden sticks treated with paint formulation, P. violacea” value ([1]; 0.15% a.i. in paint) of the same molecule?
A: 5 (Growth covering more than 70t of the inoculated test area)

Q: And the “Surface score of wooden sticks treated with paint formulation, P. violacea” value ([1]; 0.3% a.i. in paint)?
A: 4 (Growth covering between 30 and 70% of the inoculated test area)

Q: And the “Surface score of wooden sticks treated with paint formulation, R rubra (y)” value ([1]; 0.15% a.i. in paint)?
A: 4 (Growth covering between 30 and 70% of the inoculated test area)

Q: And the “Surface score of wooden sticks treated with paint formulation, R rubra (y)” value ([1]; 0.3% a.i. in paint)?
A: 3 (Growth covering between 10 and 30% of the inoculated test area)

Q: What about the “Surface score of wooden sticks treated with paint formulation, S. chartarum” value ([1]; 0.15% a.i. in paint) of the same molecule?
A: 1 (Trace of growth of up to 1% coverage of the test inoculated area)

Q: What about the “Surface score of wooden sticks treated with paint formulation, S. chartarum” value ([1]; 0.3% a.i. in paint) of the same molecule?
A: 0

Q: What about the “Surface score of wooden sticks treated with paint formulation, U. atrum” value ([1]; 0.15% a.i. in paint) of the same molecule?
A: 4 (Growth covering between 30 and 70% of the inoculated test area)

Q: What about the “Surface score of wooden sticks treated with paint formulation, U. atrum” value ([1]; 0.3% a.i. in paint) of the same molecule?
A: 3 (Growth covering between 10 and 30% of the inoculated test area)

Q: What about the “Surface score in a paint formulation in a mold cabinet test, 6 weeks” value ([2]; 0.15% in water-based paint) of the same molecule?
A: 4.0

Q: And the “Surface score in a paint formulation in a mold cabinet test, 12 weeks” value ([2]; 0.15% in water-based paint)?
A: 5.0

Q: What about the “Surface score in a paint formulation in a mold cabinet test, 6 weeks” value ([2]; 0.3% in water-based paint) of the same molecule?
A: 0

Q: And the “Surface score in a paint formulation in a mold cabinet test, 12 weeks” value ([2]; 0.3% in water-based paint)?
A: 0

Q: What about the “Surface score of treated mini-boards, 3 week incubation, 1500 ppm” value ([3]; 1500 ppm, 3 week incubation) of the same molecule?
A: 0

Q: And the “Surface score of treated mini-boards, 6 week incubation, 1500 ppm” value ([3]; 1500 ppm, 6 week incubation)?
A: 0.8

Q: And the “Surface score of treated mini-boards, 3 week incubation, 2500 ppm” value ([3]; 2500 ppm, 3 week incubation)?
A: 0

Q: And the “Surface score of treated mini-boards, 6 week incubation, 2500 ppm” value ([3]; 2500 ppm, 6 week incubation)?
A: 0.4
